From US12583849B2, “KCNT1 inhibitors and methods of use” (Praxis Precision Medicines, Inc., priority 2020, dated 2026)

Each compound was assayed against T1, KCNT1 (KNa1.1, Slack) (Homo sapiens, UniProt Q5JUK3) (assay: KCNT1-WT-Basal Patch Clamp Assay). Details: tetracycline inducible cell line (HEK-TREX); SyncroPatch 384PE automated patch clamp, perforated patch mode, room temperature, step from -80 mV to 0 mV.
T1 construct: expressed in transfected cells; host or cells: HEK-TREX (tetracycline-inducible cell line)
T1 sequence (Q5JUK3 1-1230): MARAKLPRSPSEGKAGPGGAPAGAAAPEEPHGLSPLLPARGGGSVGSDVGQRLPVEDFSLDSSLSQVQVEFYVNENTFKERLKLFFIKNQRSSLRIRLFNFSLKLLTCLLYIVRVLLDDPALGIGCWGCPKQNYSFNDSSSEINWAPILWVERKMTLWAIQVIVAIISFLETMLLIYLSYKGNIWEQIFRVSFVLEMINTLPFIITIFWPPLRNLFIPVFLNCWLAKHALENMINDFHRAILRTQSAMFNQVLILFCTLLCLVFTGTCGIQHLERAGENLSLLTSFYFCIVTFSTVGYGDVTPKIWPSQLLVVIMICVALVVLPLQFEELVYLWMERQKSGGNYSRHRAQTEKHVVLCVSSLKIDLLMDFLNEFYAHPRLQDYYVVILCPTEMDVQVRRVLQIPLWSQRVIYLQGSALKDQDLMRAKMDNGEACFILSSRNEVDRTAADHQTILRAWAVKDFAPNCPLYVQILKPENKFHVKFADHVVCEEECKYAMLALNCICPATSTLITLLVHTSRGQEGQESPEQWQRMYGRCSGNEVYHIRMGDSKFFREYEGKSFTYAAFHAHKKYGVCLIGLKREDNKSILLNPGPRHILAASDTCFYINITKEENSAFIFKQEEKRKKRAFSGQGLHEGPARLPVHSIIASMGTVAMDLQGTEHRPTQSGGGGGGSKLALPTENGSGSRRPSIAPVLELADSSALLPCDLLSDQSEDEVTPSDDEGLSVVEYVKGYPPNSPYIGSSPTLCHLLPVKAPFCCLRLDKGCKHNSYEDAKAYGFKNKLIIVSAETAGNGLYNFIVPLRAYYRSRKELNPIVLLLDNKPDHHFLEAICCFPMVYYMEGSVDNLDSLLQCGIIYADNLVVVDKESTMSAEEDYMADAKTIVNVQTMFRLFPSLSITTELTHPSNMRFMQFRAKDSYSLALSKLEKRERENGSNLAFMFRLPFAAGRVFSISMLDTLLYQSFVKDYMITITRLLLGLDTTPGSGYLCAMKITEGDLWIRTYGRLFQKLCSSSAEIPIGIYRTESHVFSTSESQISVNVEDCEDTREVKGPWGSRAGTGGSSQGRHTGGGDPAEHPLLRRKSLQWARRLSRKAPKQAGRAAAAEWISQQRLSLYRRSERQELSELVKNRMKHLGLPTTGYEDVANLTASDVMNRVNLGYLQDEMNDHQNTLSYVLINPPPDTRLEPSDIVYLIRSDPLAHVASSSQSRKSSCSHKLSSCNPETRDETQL
Format: cell-based
Method in brief: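 Tetracycline-inducible HEK-TREX cells expressing human KCNT1, recorded by automated perforated patch clamp (10 μM escin) at room temperature, with 4 mM external K+ at pH 7.4. Mean current taken during a 100 ms step from −80 mV to 0 mV, averaged over 3 sweeps. IC50 from Hill fit of % inhibition; otherwise % inhibition at top concentration.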

Row | Structure (SMILES) | IC50 [µM]
1 | C[C@H](NC(=O)C1CCC(O)CC1)c1nc(-c2ccnc(C(F)(F)F)c2)no1 (single isomer, unassigned) [Compound I-77] | ≥ 20
2 | CCn1nc(C)c(C(=O)N[C@@H](C)c2nc(-c3cccc(F)c3)no2)n1 [Compound I-40, (S)-2-ethyl-N-(1-(3-(3-fluorophenyl)-1,2,4-oxadiazol-5-yl)ethyl)-5-methyl-2H-1,2,3-triazole-4-carboxamide] | 1 to 20
3 | C[C@H](NC(=O)C1CCCN(C)C1)c1nc(-c2ccnc(C(F)(F)F)c2)no1 (stereo partly drawn) [Compound I-68, 1-methyl-N—((S)-1-(3-(2-(trifluoromethyl)pyridin-4-yl)-1,2,4-oxadiazol-5-yl)ethyl)piperidine-3-carboxamide] | ≥ 20
4 | C[C@H](NC(=O)c1ccncc1)c1nc(-c2ccnc(C(F)(F)F)c2)no1 [Compound I-6, (S)—N-(1-(3-(2-(trifluoromethyl)pyridin-4-yl)-1,2,4-oxadiazol-5-yl)ethyl)isonicotinamide] | ≥ 20
5 | C[C@H](NC(=O)CN(C)C)c1nc(-c2ccnc(C(F)(F)F)c2)no1 [III-1, (S)-2-(dimethylamino)-N-(1-(3-(2-(trifluoromethyl)pyridin-4-yl)-1,2,4-oxadiazol-5-yl)ethyl)acetamide] | ≥ 20
6 | C[C@H](NC(=O)[C@@H]1CCC(=O)N1)c1nc(-c2ccnc(C(F)(F)F)c2)no1 [Compound I-54, (S)-5-oxo-N—((S)-1-(3-(2-(trifluoromethyl)pyridin-4-yl)-1,2,4-oxadiazol-5-yl)ethyl)pyrrolidine-2-carboxamide] | ≥ 20
7 | C[C@H](NC(=O)c1nc(-c2ccccc2)nn1C)c1nc(-c2cccc(F)c2)no1 [Compound I-38, (S)—N-(1-(3-(3-fluorophenyl)-1,2,4-oxadiazol-5-yl)ethyl)-1-methyl-3-phenyl-1H-1,2,4-triazole-5-carboxamide] | ≥ 20
8 | Cc1oncc1C(=O)N[C@@H](C)c1nc(-c2ccnc(C(F)(F)F)c2)no1 [Compound I-21, (S)-5-methyl-N-(1-(3-(2-(trifluoromethyl)pyridin-4-yl)-1,2,4-oxadiazol-5-yl)ethyl)isoxazole-4-carboxamide] | 1 to 20
9 | Cc1ncc(C(=O)NC(C)c2nc(-c3cccc(F)c3)no2)c(C)n1 (stereo not drawn) [Compound I-48, N-[1-[3-(3-fluorophenyl)-1,2,4-oxadiazol-5-yl]ethyl]-2,4-dimethyl-pyrimidine-5-carboxamide] | ≥ 20
10 | C[C@H](NC(=O)[C@@H](C)c1ccccc1)c1nc(-c2ccnc(C3CC3)c2)no1 [Compound I-64, (2S)—N-[(1S)-1-[3-(2-cyclopropyl-4-pyridyl)-1,2,4-oxadiazol-5-yl]ethyl]-2-phenyl-propanamide] | ≤ 1
11 | CC(NC(=O)c1cn2ccccc2n1)c1nc(-c2cccc(F)c2)no1 (stereo not drawn) [Compound I-50, N-[1-[3-(3-fluorophenyl)-1,2,4-oxadiazol-5-yl]ethyl]imidazo[1,2-a]pyridine-2-carboxamide] | ≥ 20
12 | C[C@H](NC(=O)C1CC2(CCC2)C1)c1nc(-c2ccnc(C3CC3)c2)no1 [Compound I-98, (S)—N-(1-(3-(2-cyclopropylpyridin-4-yl)-1,2,4-oxadiazol-5-yl)ethyl) spiro[3.3]heptane-2-carboxamide] | ≤ 1
13 | C[C@H](NC(=O)c1c[nH]c(C(F)(F)F)n1)c1nc(-c2ccnc(C(F)(F)F)c2)no1 [Compound I-4, (S)-2-(trifluoromethyl)-N-(1-(3-(2-(trifluoromethyl)pyridin-4-yl)-1,2,4-oxadiazol-5-yl)ethyl)-1H-imidazole-4-carboxamide] | ≥ 20

Now from value to compound:

Row | IC50 [µM] | Structure (SMILES)
14 | ≤ 1 | CCOc1cc(-c2noc([C@H](C)NC(=O)C3CCCC3)n2)ccn1 [Compound I-45, (S)—N-(1-(3-(2-ethoxypyridin-4-yl)-1,2,4-oxadiazol-5-yl)ethyl)cyclopentanecar-boxamide]
15 | ≤ 1 | C[C@H](NC(=O)c1csc(C(F)(F)F)n1)c1nc(-c2ccnc(C(F)(F)F)c2)no1 [Compound I-10, (S)-2-(trifluoromethyl)-N-(1-(3-(2-(trifluoromethyl)pyridin-4-yl)-1,2,4-oxadiazol-5-yl)ethyl)thiazole-4-carboxamide]
16 | ≤ 1 | C[C@H](NC(=O)c1ccnc(C2CC2)c1)c1nc(-c2ccnc(C3CC3)c2)no1 [Compound I-99, (S)-2-cyclopropyl-N-(1-(3-(2-cyclopropylpyridin-4-yl)-1,2,4-oxadiazol-5-yl)ethyl)isonicotinamide]
17 | ≤ 1 | C[C@H](NC(=O)N1CCc2ccccc2C1)c1nc(-c2ccnc(C(F)(F)F)c2)no1 [II-11]
18 | ≤ 1 | C[C@H](NC(=O)[C@H]1CC[C@H](C)CC1)c1nc(-c2ccnc(C(F)(F)F)c2)no1 [Compound I-26, trans-4-methyl-N—((S)-1-(3-(2-(trifluoromethyl)pyridin-4-yl)-1,2,4-oxadiazol-5-yl)ethyl)cyclohexane-1-carboxamide]
19 | ≤ 1 | C[C@H](NC(=O)c1cccc(S(C)(=O)=O)c1)c1nc(-c2ccnc(C3CC3)c2)no1 [Compound I-92, (S)—N-(1-(3-(2-cyclopropylpyridin-4-yl)-1,2,4-oxadiazol-5-yl)ethyl)-3-(methylsulfonyl)benzamide]
20 | ≤ 1 | C[C@H](NC(=O)c1ccc(Cl)cc1Cl)c1nc(-c2ccnc(C3CC3)c2)no1 [Compound I-94, (S)-2,4-dichloro-N-(1-(3-(2-cyclopropylpyridin-4-yl)-1,2,4-oxadiazol-5-yl)ethyl)benzamide]
21 | ≤ 1 | C[C@H](NC(=O)C1(C)CCCCC1)c1nc(-c2ccnc(C(F)(F)F)c2)no1 [Compound I-71, 1-methyl-N-[(1S)-1-[3-[2-(trifluoromethyl)-4-pyridyl]-1,2,4-oxadiazol-5-yl]ethyl]cyclohexanecarboxamide]
22 | ≤ 1 | C[C@H](NC(=O)c1ccccc1Cl)c1nc(-c2ccnc(C3CC3)c2)no1 [Compound I-80, 2-chloro-N-[(1S)-1-[3-(2-cyclopropyl-4-pyridyl)-1,2,4-oxadiazol-5-yl]ethyl]benzamide]
23 | ≤ 1 | C[C@H](NC(=O)C1CC(C)(C)C1)c1nc(-c2ccnc(C(F)(F)F)c2)no1 [Compound I-56, (S)-3,3-dimethyl-N-(1-(3-(2-(trifluoromethyl)pyridin-4-yl)-1,2,4-oxadiazol-5-yl)ethyl)cyclobutane-1-carboxamide]
24 | ≤ 1 | CC1CCC(C(=O)N[C@@H](C)c2nc(-c3ccnc(C(F)(F)F)c3)no2)CC1 (stereo partly drawn) [Compound I-19, (S)-4-methyl-N-(1-(3-(2-(trifluoromethyl)pyridin-4-yl)-1,2,4-oxadiazol-5-yl)ethyl)cyclohexane-1-carboxamide]
25 | ≤ 1 | Cc1ccccc1C(=O)N[C@@H](C)c1nc(-c2ccnc(C3CC3)c2)no1 [Compound I-83, N-[(1S)-1-[3-(2-cyclopropyl-4-pyridyl)-1,2,4-oxadiazol-5-yl]ethyl]-2-methyl-benzamide]
26 | ≤ 1 | C[C@H](NC(=O)C1CCC(F)(F)CC1)c1nc(-c2ccnc(C(F)(F)F)c2)no1 [Compound I-3, (S)-4,4-difluoro-N-(1-(3-(2-(trifluoromethyl)pyridin-4-yl)-1,2,4-oxadiazol-5-yl)ethyl)cyclohexane-1-carboxamide]
27 | ≤ 1 | C[C@H](NC(=O)c1ccc(Cl)cc1)c1nc(-c2ccnc(C3CC3)c2)no1 [Compound I-62, (S)-4-chloro-N-(1-(3-(2-cyclopropylpyridin-4-yl)-1,2,4-oxadiazol-5-yl)ethyl)benzamide]
28 | ≤ 1 | C[C@H](NC(=O)c1cccc(F)c1)c1nc(-c2ccnc(C3CC3)c2)no1 [Compound I-89, (S)—N-(1-(3-(2-cyclopropylpyridin-4-yl)-1,2,4-oxadiazol-5-yl)ethyl)-3-fluorobenzamide]
29 | ≤ 1 | Cc1ccc(C(=O)N[C@@H](C)c2nc(-c3ccnc(C4CC4)c3)no2)cc1 [Compound I-87, (S)—N-(1-(3-(2-cyclopropylpyridin-4-yl)-1,2,4-oxadiazol-5-yl)ethyl)-4-methylbenzamide]
30 | ≤ 1 | CC(C)Oc1cc(-c2noc([C@H](C)NC(=O)NC(C)(C)C)n2)ccn1 [II-1]
